The experiment has as its system P388 leukemia ip, CD2F1 mice, survival T/C. As to the kind of experiment: NCI In Vivo Anticancer Drug Screen. Data for tumor model P388 Leukemia (intraperitoneal) in CD2F1 (CDF1) mice. To be noted: endpoint: median survival time, higher = longer survival. The method, boiled down: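 Mice carrying the transplanted tumor received test compound or vehicle. Survival was recorded in each group, and the value is the treated-group measurement divided by that of the vehicle-treated control group.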

[1] abbreviates: dose: 50.0 mg/kg/injection, schedule: Q01DX005 (ip), vehicle: saline with Tween-80.
Where [2] appears, read: dose: 100.0 mg/kg/injection, schedule: Q01DX005 (ip), vehicle: saline with Tween-80.
Setting [3] is: dose: 100.0 mg/kg/injection, schedule: Q01DX009 (ip), vehicle: saline with Tween-80.
[4] abbreviates: dose: 200.0 mg/kg/injection, schedule: Q01DX009 (ip), vehicle: saline with Tween-80.
The mark [5] stands for this setting: dose: 400.0 mg/kg/injection, schedule: Q01DX009 (ip), vehicle: saline with Tween-80.
The mark [6] stands for this setting: dose: 60.0 mg/kg/injection, schedule: Q01DX005 (ip), vehicle: saline with Tween-80.
Setting [7] is: dose: 12.5 mg/kg/injection, schedule: Q01DX009 (ip), vehicle: water.
[8] abbreviates: dose: 25.0 mg/kg/injection, schedule: Q01DX009 (ip), vehicle: water.
The mark [9] stands for this setting: dose: 50.0 mg/kg/injection, schedule: Q01DX009 (ip), vehicle: water.
[10] abbreviates: dose: 60.0 mg/kg/injection, schedule: Q01DX005 (ip), vehicle: Klucel (hydroxypropylcellulose) (HPC).
Where [11] appears, read: dose: 100.0 mg/kg/injection, schedule: Q01DX009 (ip), vehicle: water.
The mark [12] stands for this setting: dose: 120.0 mg/kg/injection, schedule: Q01DX005 (ip), vehicle: Klucel (hydroxypropylcellulose) (HPC).
[13] abbreviates: dose: 200.0 mg/kg/injection, schedule: Q01DX009 (ip), vehicle: water.
The mark [14] stands for this setting: dose: 240.0 mg/kg/injection, schedule: Q01DX005 (ip), vehicle: Klucel (hydroxypropylcellulose) (HPC).
The mark [15] stands for this setting: dose: 15.0 mg/kg/injection, schedule: Q01DX005 (ip), vehicle: Klucel (hydroxypropylcellulose) (HPC).
The mark [16] stands for this setting: dose: 30.0 mg/kg/injection, schedule: Q01DX005 (ip), vehicle: Klucel (hydroxypropylcellulose) (HPC).
Where [17] appears, read: dose: 50.0 mg/kg/injection, schedule: Q01DX009 (ip), vehicle: saline.
Setting [18] is: dose: 100.0 mg/kg/injection, schedule: Q01DX009 (ip), vehicle: saline.
The mark [19] stands for this setting: dose: 200.0 mg/kg/injection, schedule: Q01DX009 (ip), vehicle: saline.
The mark [20] stands for this setting: dose: 50.0 mg/kg/injection, schedule: Q01DX009 (ip), vehicle: Klucel (hydroxypropylcellulose) (HPC).
The mark [21] stands for this setting: dose: 100.0 mg/kg/injection, schedule: Q01DX009 (ip), vehicle: Klucel (hydroxypropylcellulose) (HPC).

SMILES strings stand for the structures. Values joined by “and” are separate entries in the source; they are usually repeats but may differ in a detail not shown here. Identical values can stand only once. Toxic doses and inconclusive results are not listed.

On to `CCC1(c2ccccn2)OCC(CBr)O1` (centres undefined), for which the T/C was 93 % of control under setting [1]; 100 % of control under setting [2]; 93 % of control (dose: 200.0 mg/kg/injection, schedule: Q01DX005 (ip), vehicle: saline with Tween-80).

For the molecule `C[C@]12CC[C@@H]3c4ccc(OC(=O)Cc5ccc(N(CCCl)CCCl)cc5)cc4CC[C@H]3[C@@H]1CC[C@@H]2OC(=O)Cc1ccc(N(CCCl)CCCl)cc1`, the T/C is 100 % of control (dose: 100.0 mg/kg/injection, schedule: Q04DX003 (ip), vehicle: saline with Tween-80); 120 % of control (dose: 200.0 mg/kg/injection, schedule: Q04DX003 (ip), vehicle: saline with Tween-80); 109 % of control (dose: 264.0 mg/kg/injection, schedule: Q04DX003 (ip), vehicle: saline with Tween-80); 113 % of control (dose: 400.0 mg/kg/injection, schedule: Q04DX003 (ip), vehicle: saline with Tween-80); 154 % of control (dose: 600.0 mg/kg/injection, schedule: Q04DX003 (ip), vehicle: saline with Tween-80).

For `COc1cc(/C=N/NC(=O)c2cccs2)cc(OC)c1OC`, the T/C under setting [3] is 95 % of control, the T/C under setting [4] is 100 % of control and the T/C under setting [5] is 100 % of control.

With `O=Cc1ccccc1-c1ccccc1C=O`, the T/C runs as follows: (dose: 100.0 mg/kg/injection, schedule: Q04DX002 (ip), vehicle: saline with Tween-80) 106 % of control; (dose: 200.0 mg/kg/injection, schedule: Q04DX002 (ip), vehicle: saline with Tween-80) 103 % of control.

Regarding `CCN(CC)CCNc1ccnc(F)n1`, the T/C by setting is: (dose: 30.0 mg/kg/injection, schedule: Q01DX005 (ip), vehicle: saline with Tween-80) 101 % of control; under setting [6], 103 % of control.

`COC1=CC23CCCN2CCc2cc4c(cc2C3C1O)OCO4` (centres undefined): the T/C under setting [7] was 103 % of control; the T/C under setting [8] is 99 % of control; the T/C under setting [9] is 104 % of control; the T/C under setting [10] was 101 % of control; the T/C under setting [11] is 96 % of control; the T/C under setting [12] is 106 % of control. Moreover, the T/C under setting [13] is 99 % of control and the T/C under setting [14] is 101 % of control.

For the molecule `COC1OC(COC(=O)c2ccccc2)C(=O)C(OC(=O)c2ccccc2)C1N(O)c1ccccc1` (centres undefined), the T/C is, setting by setting: (dose: 7.5 mg/kg/injection, schedule: Q01DX005 (ip), vehicle: Klucel (hydroxypropylcellulose) (HPC)) 99 % of control; under setting [15], 104 % of control; under setting [16], 95 % of control.

In the case of `OC(c1ccco1)c1nc2ccccc2s1` (centres undefined), the T/C is, setting by setting: under setting [15], 106 % of control; under setting [16], 100 % of control; under setting [10], 105 % of control and 92 % of control.

As for `CCNCC(O)c1cccc(C(F)(F)F)c1` (centres undefined), the T/C runs as follows: under setting [17], 102 % of control; under setting [18], 109 % of control.

Regarding `COc1ccc2nc3cc(Cl)ccc3c(Nc3ccc(O)c(CN(CCCl)CCCl)c3)c2c1`, the T/C (dose: 0.06 mg/kg/injection, schedule: Q01DX009 (ip), vehicle: saline with Tween-80) was 98 % of control; the T/C (dose: 0.09 mg/kg/injection, schedule: Q01DX009 (ip), vehicle: saline with Tween-80) was 89 % of control; the T/C (dose: 0.44 mg/kg/injection, schedule: Q01DX009 (ip), vehicle: saline) was 150 % of control; the T/C (dose: 0.6 mg/kg/injection, schedule: Q01DX009 (ip), vehicle: saline with Tween-80) is 154 % of control; the T/C (dose: 0.66 mg/kg/injection, schedule: Q01DX009 (ip), vehicle: saline) is 160 % of control; the T/C (dose: 1.0 mg/kg/injection, schedule: Q01DX009 (ip), vehicle: saline) was 155 % of control. For the same molecule, the T/C (dose: 1.5 mg/kg/injection, schedule: Q01DX009 (ip), vehicle: saline) is 175 % of control.

`O=C(O)C12C3C4C5C3C3(OCCO3)C1(Br)C5C42` (centres undefined): the T/C was 100 % of control under setting [6]; 102 % of control (dose: 120.0 mg/kg/injection, schedule: Q01DX005 (ip), vehicle: saline with Tween-80); 107 % of control (dose: 240.0 mg/kg/injection, schedule: Q01DX005 (ip), vehicle: saline with Tween-80).

Regarding `Nn1cnc2c(ncn2C2OC(CO)C(O)C2O)c1=O` (centres undefined), the T/C reads like this: under setting [10], 98 % of control; under setting [12], 99 % of control; under setting [14], 97 % of control.

With `COc1cc(/C=C2\SC(=S)N(C3CC3)C2=O)ccc1O`, the T/C under setting [17] was 97 % of control; the T/C under setting [18] was 107 % of control; the T/C under setting [19] was 104 % of control and 91 % of control.

Take `OC1(C(O)(c2ccc(-c3ccccc3)cc2)c2ccc(-c3ccccc3)cc2)CCCCC1`: the T/C is, setting by setting: under setting [1], 90 % of control; under setting [2], 87 % of control.

Consider `O=C(Nc1ccccc1[N+](=O)[O-])C1C(=O)C(=O)N(c2ccccc2[N+](=O)[O-])C1=O` (centres undefined), for which the T/C is, setting by setting: under setting [20], 99 % of control; under setting [21], 108 % of control; (dose: 200.0 mg/kg/injection, schedule: Q01DX009 (ip), vehicle: Klucel (hydroxypropylcellulose) (HPC)) 99 % of control.

As to `COc1cc(CCN)ccc1O`, the T/C runs as follows: under setting [18], 104 % of control and 98 % of control; under setting [19], 100 % of control and 102 % of control; (dose: 400.0 mg/kg/injection, schedule: Q01DX009 (ip), vehicle: saline) 100 % of control and 107 % of control; (dose: 600.0 mg/kg/injection, schedule: Q01DX009 (ip), vehicle: saline) 102 % of control and 114 % of control.

As for `S=C(Nc1ccc(Cl)c(Cl)c1)SCc1ccc2c(c1)OCO2`, the T/C was 116 % of control (dose: 12.5 mg/kg/injection, schedule: Q01DX009 (ip), vehicle: Klucel (hydroxypropylcellulose) (HPC)); 120 % of control (dose: 25.0 mg/kg/injection, schedule: Q01DX009 (ip), vehicle: Klucel (hydroxypropylcellulose) (HPC)); 121 % of control under setting [20]; 112 % of control and 97 % of control under setting [21].

With `CC(=O)OCc1cc[n+](C)cc1`, the T/C by setting is: under setting [7], 100 % of control; under setting [8], 105 % of control; under setting [9], 101 % of control; under setting [11], 102 % of control; under setting [13], 93 % of control; (dose: 400.0 mg/kg/injection, schedule: Q01DX009 (ip), vehicle: water) 112 % of control.

On to `CCOC(=O)c1cc(CC)sc1N`, for which the T/C is, setting by setting: under setting [3], 90 % of control; under setting [4], 90 % of control.

Consider `CC(C)(c1ccc(OCC2CO2)cc1)c1ccc(OCC2CO2)cc1` (centres undefined), for which the T/C is 103 % of control (dose: 25.0 mg/kg/injection, schedule: Q01DX009 (ip), vehicle: saline with Tween-80); 103 % of control and 107 % of control (dose: 50.0 mg/kg/injection, schedule: Q01DX009 (ip), vehicle: saline with Tween-80); 103 % of control under setting [3]; 109 % of control under setting [4]; 114 % of control under setting [5].

`CN=C(NC)c1ccc(NC(=O)c2cc(C)cc(C(=O)Nc3ccc(C(=NC)NC)cc3)c2)cc1`: the T/C is, setting by setting: (dose: 3.12 mg/kg/injection, schedule: Q01DX005 (ip), vehicle: saline with Tween-80) 103 % of control; (dose: 6.25 mg/kg/injection, schedule: Q01DX005 (ip), vehicle: saline with Tween-80) 105 % of control; (dose: 12.5 mg/kg/injection, schedule: Q01DX005 (ip), vehicle: saline with Tween-80) 107 % of control.

Turning to `Cc1ccc(S(=O)(=O)N/N=C/c2c(Cl)n(-c3ccccc3)c3ccccc23)cc1`, the T/C runs as follows: (dose: 100.0 mg/kg/injection, schedule: Q01DX001 (ip), vehicle: saline with Tween-80) 100 % of control; (dose: 200.0 mg/kg/injection, schedule: Q01DX001 (ip), vehicle: saline with Tween-80) 99 % of control; (dose: 400.0 mg/kg/injection, schedule: Q01DX001 (ip), vehicle: saline with Tween-80) 97 % of control.

Values taken from PubChem BioAssay AID330 (DTP/NCI, 2004).
